Results on two compounds are retold here after US10052336B2, “Pulmonary interstitial pneumonia treatment” (priority 2012, dated 2018).

The test system of assay [1] is idiopathic pulmonary fibrosis. The settings on record: as compared with placebo; Martinez F. J. et al., N Engl J Med 2014; cited from earlier work.
In assay [2] the test system is non-specific interstitial pneumonitis (NSIP). Nature of the assay: Inventor's own treatment course for non-specific interstitial pneumonitis, tracked by CRP level and symptoms. The format is in vivo, human. The settings on record: tapered-down doses of prednisone from 30-40 mg/day. On the procedure: NSIP is a sub-type of Idiopathic Pulmonary Fibrosis (IPF), comprising a group of interstitial pneumonias. […] Following the NSIP diagnosis, my tapered prednisone treatments were supplemented with 100 mg/day azathioprine and, subsequently, with 1800 mg/day N-Acetyl Cysteine (NAC).

Take `CC(=O)N[C@@H](CS)C(=O)O` [acetylcysteine, N-Acetyl Cysteine]: the “preservation of FVC [i.e., lung capacity]” value in assay [1] was “no significant benefit”. On to `C[C@]12C=CC(=O)C=C1CC[C@@H]1[C@@H]2C(=O)C[C@@]2(C)[C@H]1CC[C@]2(O)C(=O)CO` [prednisone], for which the “symptoms (dry cough, dyspnea, fever)” value in assay [2] was “continued symptoms to worsen”. For the same compound, the “systemic inflammation as measured by CRP level” value in assay [2] (eventually approaching and exceeding levels in the teens of mg/l) is “continued to worsen”.
